Results on 77 sequences are retold here after the supplement of paper PMC11208160.
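Also: IS621 recombinase and bridge RNA in Escherichia coli cells.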

This series in a line: recombinant barcode read abundance after kanamycin selection (control-corrected) (log10(CPM+1)); higher = more efficient recombination; sequences stand for … in AGTGCAGAGAAAATCGGCCAGTTTTCTCTGCCTGCAGTCCGCATGCCGT…AGATTTATGCAGCGGACTGCCTTTCTCCCAAAGTGATAAACCGGACAGTATCATGGACCGGTTTTCCCGGTAATCCGTATTTGCAAGGTTGGTTTCACT; site = the 11-nt target. The method, boiled down: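 Targets and IS621 bridge RNA target-binding loops were paired in oligos, each with a promoter, a barcode and the J23119-driven first 104 bridge RNA bases. A vector carrying the remaining 73 bp and a T7-inducible recombinase received these by Gibson cloning, and the pool was co-electroporated into E. coli with a donor plasmid. Duplicate plates contained chloramphenicol/ampicillin LB agar (control) or chloramphenicol/ampicillin/kanamycin with 0.1 mM IPTG. Recombination efficiency comes from averaged, control-corrected counts per million of recombinant-junction barcodes, reported as log10(CPM+1).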
As for “CCGTCACCTTGGGTTCTAACCTGTTGCCT (site GCGTCACCTAG)”, the “recombinant barcode read abundance (log10)” value is 0.0965. For “CCGTCACCTTGGGTTCTAACCTGTTGCCT (site TCGTCACCTAG)” the value was 0.0881; for “CCGTCCTCTTGGGTTCTAACCTGTTGCTG (site CAGTCCTCTCA)”, 0.0234; for “CCGTCCTCTTGGGTTCTAACCTGTTGCTG (site CCGTCCTCTCA)”, 1.01. As for “CCGTCGACTTGGGTTCTAACCTGTTGCCT (site ACGTCCACTAG)”, the “recombinant barcode read abundance (log10)” value came to 0.0141. For “CCGTCGACTTGGGTTCTAACCTGTTGCCT (site CCGTCGACTAG)” the value was 0.197; for “CCGTCTACTTGGGTTCTAACCTGTTGCTG (site CCGTCTACTAA)”, 0.019; for “CCGTCTACTTGGGTTCTAACCTGTTGCTG (site CCGTCTACTCA)”, 0.38. “CCGTCTACTTGGGTTCTAACCTGTTGCTG (site CCGTCTACTGA)”: the “recombinant barcode read abundance (log10)” value worked out at 0.0602. Take “CCGTCTACTTGGGTTCTAACCTGTTGCTG (site CCGTCTACTTA)”: the “recombinant barcode read abundance (log10)” value is 0.111. For the sequence “CCGTGGACTTGGGTTCTAACCTGTTGCCT (site CCGTGGACTAG)”, the “recombinant barcode read abundance (log10)” value is 1.75.

For the sequence “CCGTGGACTTGGGTTCTAACCTGTTGCCT (site CCGTGGCCTAA)”, the “recombinant barcode read abundance (log10)” value worked out at 0.254. As for “CCTAAGACTTGGGTTCTAACCTGTTGCCG (site CCTAAGACTAG)”, the “recombinant barcode read abundance (log10)” value is 0.343. As to “CCTAAGACTTGGGTTCTAACCTGTTGCCG (site CCTAAGACTCG)”, the “recombinant barcode read abundance (log10)” value was found to be 0.263.

On to “CCTAAGACTTGGGTTCTAACCTGTTGCCG (site CCTAAGACTGG)”, for which the “recombinant barcode read abundance (log10)” value was found to be 0.148. As to “CCTAAGACTTGGGTTCTAACCTGTTGCCG (site CCTAAGACTTG)”, the “recombinant barcode read abundance (log10)” value was determined as 0.0897. For “CCTAATGCTTGGGTTCTAACCTGTTGCCT (site CCAAAGGCTAG)” the value was 0.0782. As for “CCTAATGCTTGGGTTCTAACCTGTTGCCT (site CCTAATGCTAG)”, the “recombinant barcode read abundance (log10)” value was determined as 0.0345. For “CCTACCGCTTGGGTTCTAACCTGTTGCTT (site CCTACCGCTAA)” the value was 0.424. The same measure for “CCTACCGCTTGGGTTCTAACCTGTTGCTT (site CGTACCGCTAG)”: 0.0456. With “CCTCACTCTTGGGTTCTAACCTGTTGCGG (site CCTCACTCTCC)”, the “recombinant barcode read abundance (log10)” value worked out at 1.66. For “CCTCACTCTTGGGTTCTAACCTGTTGCGG (site CCTCAGTCTTC)” the value was 0. For “CCTCGCACTTGGGTTCTAACCTGTTGCCT (site CATCGCACTAG)” the value was 0.0533; for “CCTCGCACTTGGGTTCTAACCTGTTGCCT (site CCTCGCACTAG)”, 0.458; for “CCTCGCACTTGGGTTCTAACCTGTTGCCT (site CGTCGCACTAG)”, 0.133. Take “CCTCGCACTTGGGTTCTAACCTGTTGCCT (site CTTCGCACTAG)”: the “recombinant barcode read abundance (log10)” value worked out at 0.0293.

Take “CCTCGGGCTTGGGTTCTAACCTGTTGCAG (site CATCGGGCTCT)”: the “recombinant barcode read abundance (log10)” value is 0.0896. For the sequence “CCTCGGGCTTGGGTTCTAACCTGTTGCAG (site CCTCGGGCTCT)”, the “recombinant barcode read abundance (log10)” value was found to be 1.23. For “CCTCGGGCTTGGGTTCTAACCTGTTGCAG (site CGTCGGGCTCT)”, the “recombinant barcode read abundance (log10)” value was determined as 0.011.

On to “CCTCGGGCTTGGGTTCTAACCTGTTGCAG (site CTTCGGGCTCT)”, for which the “recombinant barcode read abundance (log10)” value amounted to 0.101. On to “CCTGACTCTTGGGTTCTAACCTGTTGCAC (site CCTGACTCTGT)”, for which the “recombinant barcode read abundance (log10)” value stood at 2.05. Consider “CCTGACTCTTGGGTTCTAACCTGTTGCAC (site GAACTGCCTAA)”, for which the “recombinant barcode read abundance (log10)” value stood at 0.0359.

On to “CCTGACTCTTGGGTTCTAACCTGTTGCAT (site CCTGACTCTAT)”, for which the “recombinant barcode read abundance (log10)” value was 2.19.

Consider “CCTGACTCTTGGGTTCTAACCTGTTGCAT (site TAGTGGCCTTA)”, for which the “recombinant barcode read abundance (log10)” value turned out to be 0.221. Take “CCTGAGACTTGGGTTCTAACCTGTTGCAG (site CCTGAGACTCT)”: the “recombinant barcode read abundance (log10)” value is 1.37. In the case of “CCTGAGACTTGGGTTCTAACCTGTTGCAG (site CCTGGCACTCT)”, the “recombinant barcode read abundance (log10)” value turned out to be 0.297.

Take “CCTGCGACTTGGGTTCTAACCTGTTGCAC (site AAGCACCCTCA)”: the “recombinant barcode read abundance (log10)” value worked out at 0.185. Regarding “CCTGCGACTTGGGTTCTAACCTGTTGCAC (site CCTGCGACTGT)”, the “recombinant barcode read abundance (log10)” value is 0.219. For the sequence “CCTGCGGCTTGGGTTCTAACCTGTTGCCT (site CCTGCGACTAG)”, the “recombinant barcode read abundance (log10)” value came to 0.0127. In the case of “CCTGCGGCTTGGGTTCTAACCTGTTGCCT (site CCTGCGGCTAG)”, the “recombinant barcode read abundance (log10)” value turned out to be 0.15. The same measure for “CCTGGAACTTGGGTTCTAACCTGTTGCTT (site CCTGGAACTAA)”: 0.418; for “CCTGGAACTTGGGTTCTAACCTGTTGCTT (site CCTGGAGCTAT)”: 0.333; for “CCTGGACCTTGGGTTCTAACCTGTTGCGT (site CCTGGACCTAC)”: 2.06. In the case of “CCTGGACCTTGGGTTCTAACCTGTTGCGT (site CCTGGGCCTAA)”, the “recombinant barcode read abundance (log10)” value was found to be 0.0265. With “CCTGGAGCTTGGGTTCTAACCTGTTGCAT (site CCTGGAACTAA)”, the “recombinant barcode read abundance (log10)” value came out at 0.266. Consider “CCTGGAGCTTGGGTTCTAACCTGTTGCAT (site CCTGGAGCTAT)”, for which the “recombinant barcode read abundance (log10)” value is 0.654. “CCTGGCACTTGGGTTCTAACCTGTTGCAG (site CCTGAGACTCT)”: the “recombinant barcode read abundance (log10)” value was determined as 0.

On to “CCTGGCACTTGGGTTCTAACCTGTTGCAG (site CCTGGCACTCT)”, for which the “recombinant barcode read abundance (log10)” value stood at 1.96. Regarding “CCTGGGACTTGGGTTCTAACCTGTTGCTA (site ATGATACCTAT)”, the “recombinant barcode read abundance (log10)” value was 0.186. With “CCTGGGACTTGGGTTCTAACCTGTTGCTA (site CCTGGGACTTA)”, the “recombinant barcode read abundance (log10)” value was 2.03. With “CCTGGTCCTTGGGTTCTAACCTGTTGCAT (site CCTGGACCTAA)”, the “recombinant barcode read abundance (log10)” value came out at 0.195. With “CCTGGTCCTTGGGTTCTAACCTGTTGCAT (site CCTGGTCCTAT)”, the “recombinant barcode read abundance (log10)” value is 1.42. For the sequence “CCTTAGTCTTGGGTTCTAACCTGTTGCAG (site ACATAGTCTCT)”, the “recombinant barcode read abundance (log10)” value turned out to be 0.169. For the sequence “CCTTAGTCTTGGGTTCTAACCTGTTGCAG (site CCTTAGTCTCT)”, the “recombinant barcode read abundance (log10)” value was 1.15. For “CCTTCCACTTGGGTTCTAACCTGTTGCCT (site ACTTCCACTAG)” the value was 0.00909; for “CCTTCCACTTGGGTTCTAACCTGTTGCCT (site CCTTCCACTAG)”, 0.285; for “CCTTCCACTTGGGTTCTAACCTGTTGCCT (site GCTTCCACTAG)”, 0.0418.

Regarding “CCTTCCACTTGGGTTCTAACCTGTTGCCT (site TCTTCCACTAG)”, the “recombinant barcode read abundance (log10)” value worked out at 0.0607. As to “CCTTCCTCTTGGGTTCTAACCTGTTGCCT (site CATTCCTCTAG)”, the “recombinant barcode read abundance (log10)” value is 0.018. Consider “CCTTCCTCTTGGGTTCTAACCTGTTGCCT (site CCTTCCTCTAG)”, for which the “recombinant barcode read abundance (log10)” value worked out at 0.599. For the sequence “CCTTCCTCTTGGGTTCTAACCTGTTGCCT (site CGTTCCTCTAG)”, the “recombinant barcode read abundance (log10)” value is 0.0856. For “CCTTCCTCTTGGGTTCTAACCTGTTGCCT (site CTTTCCTCTAG)” the value was 0; for “CCTTGGACTTGGGTTCTAACCTGTTGCCT (site CCTTGCTCTAG)”, 0.084; for “CCTTGGACTTGGGTTCTAACCTGTTGCCT (site CCTTGGACTAG)”, 0.427.

On to “CCTTTGTCTTGGGTTCTAACCTGTTGCTT (site CCTTTGACTAA)”, for which the “recombinant barcode read abundance (log10)” value was 0.155.

For “CCTTTGTCTTGGGTTCTAACCTGTTGCTT (site CCTTTGTCTAA)”, the “recombinant barcode read abundance (log10)” value was found to be 0.243. Turning to “CGAAAATCTTGGGTTCTAACCTGTTGCCT (site CGAAAATCTAG)”, the “recombinant barcode read abundance (log10)” value came out at 0.0664.

Consider “CGAAAATCTTGGGTTCTAACCTGTTGCCT (site CGCAAATCTAG)”, for which the “recombinant barcode read abundance (log10)” value is 1.33. For “CGAAAATCTTGGGTTCTAACCTGTTGCCT (site CGGAAATCTAG)”, the “recombinant barcode read abundance (log10)” value worked out at 0.18.

As to “CGAAAATCTTGGGTTCTAACCTGTTGCCT (site CGTAAATCTAG)”, the “recombinant barcode read abundance (log10)” value worked out at 0.128. For “CGAAGCTCTTGGGTTCTAACCTGTTGCCT (site CGAAGCTCTAG)” the value was 1.44; for “CGAAGCTCTTGGGTTCTAACCTGTTGCCT (site CGCAGCTCTAG)”, 0.211. “CGAAGCTCTTGGGTTCTAACCTGTTGCCT (site CGGAGCTCTAG)”: the “recombinant barcode read abundance (log10)” value is 0.108.

Take “CGAAGCTCTTGGGTTCTAACCTGTTGCCT (site CGTAGCTCTAG)”: the “recombinant barcode read abundance (log10)” value worked out at 0.223.

With “CGAATCCCTTGGGTTCTAACCTGTTGCCT (site CGAATCACTAG)”, the “recombinant barcode read abundance (log10)” value amounted to 0.107. Regarding “CGAATCCCTTGGGTTCTAACCTGTTGCCT (site CGAATCCCTAG)”, the “recombinant barcode read abundance (log10)” value was 0.809. The same measure for “CGAATCCCTTGGGTTCTAACCTGTTGCCT (site CGAATCGCTAG)”: 0.0332.
